Data published in US10765114B2, “4-amino-6-(pyridyl and 2-substitutedphenyl)-picolinates and 6-amino-2-(pyridyl and 2-substitutedphenyl)-pyrimidine-4-carboxylates and their use as herbicides” (Dow AgroSciences LLC, priority 2013, dated 2020).
Where two headings read alike, the source gives them in different places.

What was measured:
[1] = tested on: Key Grass and Sedge Weeds as well as Grass Crops; experiment: Post-Emergent Test II (Table 6); format: in vivo; conditions: post-emergence, 336 h, 14 days after application; for pest or weed control at 70 g/ha: 70 g ai/ha; for pest or weed control at 140 g/ha: 140 g ai/ha
Procedure, shortened: (§1)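 Visual injury ratings (0 = no injury, 100 = complete kill) taken 14 days after treatment, relative to untreated controls. Compounds, in an acetone/DMSO aqueous carrier with crop oil and surfactant, were applied by track sprayer at 187 L/ha, in a twofold dilution series from the top rate, to plants at the first to second true-leaf stage.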

[2] = tested on: Key Broadleaf Weed and Crop Species; experiment: Post-Emergent Test II (Table 5); format: in vivo; conditions: post-emergence, 336 h; for pest or weed control at 70 g/ha: application rate 70 (kg ai/ha; footnote: g ai/ha); for pest or weed control at 140 g/ha: application rate 140 (kg ai/ha; footnote: g ai/ha)
Procedure, shortened: as §1

[3] = CYPSS, read-out: Visual Growth Reduction (%) 14 Days After Application CYPSS
[4] = DIGSA: crabgrass (Digitaria sanguinalis), read-out: Visual Growth Reduction (%) 14 Days After Application DIGSA
[5] = ECHSS, read-out: Visual Growth Reduction (%) 14 Days After Application ECHSS
[6] = ORYSS (crop), read-out: Visual Growth Reduction (%) 14 Days After Application ORYSS
[7] = SETFA: giant foxtail (Setaria faberi), read-out: Visual Growth Reduction (%) 14 Days After Application SETFA
[8] = SORVU: grain sorghum (Sorghum vulgare), read-out: Visual Growth Reduction (%) 14 Days After Application SORVU
[9] = TRZSS (crop), read-out: Visual Growth Reduction (%) 14 Days After Application TRZSS
[10] = ZEAMX: maize, corn (Zea mays), read-out: Visual Growth Reduction (%) 14 Days After Application ZEAMX
[11] = Abutilon theophrasti, ABUTH: velvetleaf (Abutilon theophrasti), read-out: Visual Growth Reduction (%) 14 Days After Application ABUTH
[12] = Amaranthus retroflexus, AMARE: redroot pigweed (Amaranthus retroflexus), read-out: Visual Growth Reduction (%) 14 Days After Application AMARE
[13] = Brassica napus, BRSSS: oilseed rape, canola (Brassica napus), read-out: Visual Growth Reduction (%) 14 Days After Application BRSSS
[14] = Chenopodium album, CHEAL: lambsquarters (Chenopodium album), read-out: Visual Growth Reduction (%) 14 Days After Application CHEAL
[15] = Euphorbia heterophylla, EPHHL: wild poinsettia (Euphorbia heterophylla), read-out: Visual Growth Reduction (%) 14 Days After Application EPHHL
[16] = Helianthus annuus, HELAN: sunflower (Helianthus annuus), read-out: Visual Growth Reduction (%) 14 Days After Application HELAN
[17] = Viola tricolor, VIOTR: wild pansy (Viola tricolor), read-out: Visual Growth Reduction (%) 14 Days After Application VIOTR

Row | melting point | Structure (SMILES) | pest or weed control at 70 g/ha [1, 3] | pest or weed control at 140 g/ha [1, 3] | pest or weed control at 70 g/ha [1, 4] | pest or weed control at 140 g/ha [1, 4] | pest or weed control at 70 g/ha [1, 5] | pest or weed control at 140 g/ha [1, 5] | pest or weed control at 70 g/ha [1, 6] | pest or weed control at 140 g/ha [1, 6] | pest or weed control at 70 g/ha [1, 7] | pest or weed control at 140 g/ha [1, 7] | pest or weed control at 70 g/ha [1, 8] | pest or weed control at 140 g/ha [1, 8] | pest or weed control at 70 g/ha [1, 9] | pest or weed control at 140 g/ha [1, 9] | pest or weed control at 70 g/ha [1, 10] | pest or weed control at 140 g/ha [1, 10] | pest or weed control at 70 g/ha [2, 11] | pest or weed control at 140 g/ha [2, 11] | pest or weed control at 70 g/ha [2, 12] | other results
1 | 144 to 146 °C | COC(=O)c1nc(-c2c(F)cc(Cl)c(F)c2C)cc(N)c1Cl [Compound 38, methyl 4-amino-3-chloro-6-(4-chloro-3,6-difluoro-2-methylphenyl)picolinate] | 0 to 29% | 0 to 29% | 0 to 29% | 0 to 29% | 0 to 29% | 0 to 29% | 0 to 29% | 0 to 29% | 0 to 29% | 0 to 29% | 0 to 29% | 0 to 29% | 45 to 59% | 60 to 74% | 0 to 29% | 0 to 29% | 95 to 100% | 95 to 100% | 95 to 100% | pest or weed control at 140 g/ha [2, 12]: 95 to 100%; pest or weed control at 70 g/ha [2, 13]: 95 to 100%; pest or weed control at 140 g/ha [2, 13]: 95 to 100%; pest or weed control at 70 g/ha [2, 14]: 85 to 94%; pest or weed control at 140 g/ha [2, 14]: 95 to 100%; pest or weed control at 70 g/ha [2, 15]: 30 to 44%; pest or weed control at 140 g/ha [2, 15]: 45 to 59%; pest or weed control at 70 g/ha [2, 16]: 75 to 84%; pest or weed control at 140 g/ha [2, 16]: 95 to 100%; pest or weed control at 70 g/ha [2, 17]: 75 to 84%; pest or weed control at 140 g/ha [2, 17]: 85 to 94%
2 | 148 to 149 °C | COC(=O)c1nc(-c2ccc(C(F)(F)F)nc2)nc(N)c1OC [Compound 43, methyl 6-amino-5-methoxy-2-(6-(trifluoromethyl)pyridin-3-yl)pyrimidine-4-carboxylate] | 0 to 29% | 60 to 74% | 30 to 44% | 60 to 74% | 0 to 29% | 0 to 29% | 0 to 29% | 0 to 29% | 0 to 29% | 0 to 29% | 0 to 29% | 0 to 29% | 0 to 29% | 0 to 29% | 0 to 29% | 0 to 29% | 0 to 29% | 0 to 29% | 30 to 44% | pest or weed control at 140 g/ha [2, 12]: 60 to 74%; pest or weed control at 70 g/ha [2, 13]: 30 to 44%; pest or weed control at 140 g/ha [2, 13]: 45 to 59%; pest or weed control at 70 g/ha [2, 14]: 0 to 29%; pest or weed control at 140 g/ha [2, 14]: 0 to 29%; pest or weed control at 70 g/ha [2, 15]: 30 to 44%; pest or weed control at 140 g/ha [2, 15]: 60 to 74%; pest or weed control at 70 g/ha [2, 16]: 0 to 29%; pest or weed control at 140 g/ha [2, 16]: 30 to 44%; pest or weed control at 70 g/ha [2, 17]: 0 to 29%; pest or weed control at 140 g/ha [2, 17]: 0 to 29%
3 | 190 to 191 °C | COC(=O)c1nc(-c2ccc(Cl)nc2F)c(F)c(N)c1Cl [Compound 45] | 95 to 100% | 95 to 100% | 60 to 74% | 75 to 84% | 75 to 84% | 85 to 94% | 0 to 29% | 0 to 29% | 45 to 59% | 45 to 59% | 30 to 44% | 45 to 59% | 0 to 29% | 0 to 29% | 0 to 29% | 0 to 29% | 85 to 94% | 95 to 100% | 95 to 100% | pest or weed control at 140 g/ha [2, 12]: 95 to 100%; pest or weed control at 70 g/ha [2, 13]: 0 to 29%; pest or weed control at 140 g/ha [2, 13]: 30 to 44%; pest or weed control at 70 g/ha [2, 14]: 95 to 100%; pest or weed control at 140 g/ha [2, 14]: 95 to 100%; pest or weed control at 70 g/ha [2, 15]: 30 to 44%; pest or weed control at 140 g/ha [2, 15]: 45 to 59%; pest or weed control at 70 g/ha [2, 16]: 95 to 100%; pest or weed control at 140 g/ha [2, 16]: 95 to 100%; pest or weed control at 70 g/ha [2, 17]: 75 to 84%; pest or weed control at 140 g/ha [2, 17]: 95 to 100%
4 | 164 °C | Nc1c(F)c(-c2ccc(C(F)(F)F)nc2)nc(C(=O)O)c1Cl [Compound 46, 4-amino-5-chloro-3-fluoro-6′-(trifluoromethyl)-[2,3′-bipyridine]-6-carboxylic acid] | 95 to 100% | 95 to 100% | 95 to 100% | 95 to 100% | 95 to 100% | 95 to 100% | 75 to 84% | 95 to 100% | 95 to 100% | 95 to 100% | 85 to 94% | 85 to 94% | 75 to 84% | 85 to 94% | 85 to 94% | 85 to 94% | 85 to 94% | 95 to 100% | 95 to 100% | pest or weed control at 140 g/ha [2, 12]: 95 to 100%; pest or weed control at 70 g/ha [2, 13]: 95 to 100%; pest or weed control at 140 g/ha [2, 13]: 95 to 100%; pest or weed control at 70 g/ha [2, 14]: 95 to 100%; pest or weed control at 140 g/ha [2, 14]: 95 to 100%; pest or weed control at 70 g/ha [2, 15]: 95 to 100%; pest or weed control at 140 g/ha [2, 15]: 95 to 100%; pest or weed control at 70 g/ha [2, 16]: 95 to 100%; pest or weed control at 140 g/ha [2, 16]: 95 to 100%; pest or weed control at 70 g/ha [2, 17]: 85 to 94%; pest or weed control at 140 g/ha [2, 17]: 95 to 100%
